Measurements as given in patent US20240148821A1, “PHARMACEUTICAL USE OF CYCLIC PEPTIDE COMPOUND” (CHUGAI SEIYAKU KABUSHIKI KAISHA, priority 2021, published 2024).
Numbered stars: 1 amine (or outer) side, 2 acyl side, 3 side chain; on linkers, the order of the positions; unused ones are H or OH. Bridge positions count the residues as written; N and C are the ends. Square brackets hold non-standard residues; d marks the D form. Peptide text beside a SMILES is read from it. * marks the point of attachment. hPhe(3,5-F2-4-CF3) = N[C@@H](CCc1cc(F)c(C(F)(F)F)c(F)c1)C(=O)O; hPhe(3-Cl-4-CF3) = N[C@@H](CCc1ccc(C(F)(F)F)c(Cl)c1)C(=O)O; hPhe(3-F,4-CF3) = N[C@@H](CCc1ccc(C(F)(F)F)c(F)c1)C(=O)O; NMePhe(4-CF3) = CN[C@@H](Cc1ccc(C(F)(F)F)cc1)C(=O)O; Pro(trans-4-Ph) = O=C(O)[C@@H]1C[C@@H](c2ccccc2)CN1; Pro(cis-4-Ph) = O=C(O)[C@@H]1C[C@H](c2ccccc2)CN1; NMePhe(4-Cl) = CN[C@@H](Cc1ccc(Cl)cc1)C(=O)O; NEtPhe(2-Cl) = CCN[C@@H](Cc1ccccc1Cl)C(=O)O; hPhe(3-Cl) = N[C@@H](CCc1cccc(Cl)c1)C(=O)O; NMedβ3hAla = C[C@H](CC(=O)[*:2])N(C)[*:1]; NMeGly(cPent) = CN[C@H](C(=O)O)C1CCCC1; NMeGly(cBu) = CN[C@H](C(=O)O)C1CCC1; NMeCha = CN[C@@H](CC1CCCCC1)C(=O)O; NEtLeu = CCN[C@@H](CC(C)C)C(=O)O; NMeAhp(2) = CCCCC[C@H](NC)C(=O)O; NMeChg = CN[C@H](C(=O)O)C1CCCCC1; NMeI = CC[C@H](C)[C@H](NC)C(=O)O; d(β3hL) = CC(C)C[C@@H](N)CC(=O)O; NMeD = CN[C@@H](CC(=O)O)C(=O)O; NMeL = CN[C@@H](CC(C)C)C(=O)O; NMehSer = CN[C@@H](CCO)C(=O)O; NMeV = CN[C@H](C(=O)O)C(C)C; d(β3hA) = C[C@@H](N)CC(=O)O; NMeS = CN[C@@H](CO)C(=O)O; Morpholide = C1CN(*)CCO1; NMeA = CN[C@@H](C)C(=O)O; Piperidide = C1CCN(*)CC1; Pyrrolidide = C1CCN(*)C1; Ac5c = NC1(C(=O)O)CCCC1; Aze = O=C(O)[C@@H]1CCN1; CH2CMe2OH = CC(C)(O)C*; Aib = CC(C)(N)C(=O)O; Isopentyl = CC(C)CC*; NEtG = CCNCC(=O)O; Sar = CNCC(=O)O; Propyl = CCC*

Each molecule was assayed against protein-protein interaction between Kras and SOS1 (biotin-tagged human Kras loaded with GDP, His-tagged human SOS1) (Homo sapiens (Human), UniProt P01116, G12D) (assay: Protein-protein interaction inhibition between Kras and SOS1 (KrasG12D-SOS PPI) using AlphaScreen). Details: AlphaScreen; biotin-tagged human Kras loaded with GDP, His-tagged human SOS1; read-out: KRAS G12D-SOS PPI IC50.
Format: biochemical

SMILES	IC50 [nM]
CC[C@H](C)[C@@H]1NC(=O)[C@H](C(C)C)N(C)C(=O)C[C@@H](C)NC(=O)[C@H](CC(C)C)N(C)C(=O)C2(CCCC2)NC(=O)[C@H](CC(C)C)N(C)C(=O)[C@H](CCc2ccc(C(F)(F)F)c(Cl)c2)NC(=O)CN(C)C(=O)[C@H](Cc2ccc(Cl)cc2)N(C)C(=O)CN(C)C(=O)CN(C)C1=O [Compound 1014] (cyclo([Ac5c][NMeL][d(β3hA)][NMeV]I[Sar][Sar][NMePhe(4-Cl)][Sar][hPhe(3-Cl-4-CF3)][NMeL]))	13
CC[C@H](C)[C@@H]1NC(=O)[C@H](CC(C)C)N(C)C(=O)C[C@@H](C(=O)N2CCCC2)NC(=O)[C@H](C2CCCC2)N(C)C(=O)C2(CCCC2)NC(=O)[C@@H]2CCCN2C(=O)[C@H](CCc2ccc(C(F)(F)F)c(Cl)c2)NC(=O)CN(C)C(=O)[C@H](CC2CCCCC2)N(C)C(=O)[C@@H]2CCN2C(=O)[C@H](C)N(C)C1=O [Compound 700] ([NMeL]I[NMeA][Aze][NMeCha][Sar][hPhe(3-Cl-4-CF3)]P[Ac5c][NMeGly(cPent)]D-Pyrrolidide; lactam N-11)	5
CC[C@H](C)[C@@H]1NC(=O)[C@H](CC(C)C)N(C)C(=O)C[C@@H](C(=O)N2CCCCC2)N(C)C(=O)[C@H](C2CCCCC2)N(C)C(=O)C2(CCCC2)NC(=O)[C@@H]2C[C@H](c3ccccc3)CN2C(=O)[C@H](CCc2ccc(C(F)(F)F)c(Cl)c2)NC(=O)CN(C)C(=O)[C@H](CC2CCCCC2)N(C)C(=O)[C@@H]2CCN2C(=O)CN(C)C1=O [Compound 960] ([NMeL]I[Sar][Aze][NMeCha][Sar][hPhe(3-Cl-4-CF3)][Pro(cis-4-Ph)][Ac5c][NMeChg][NMeD]-Piperidide; lactam N-11)	7.9
CC[C@H](C)[C@@H]1NC(=O)[C@H](CC(C)C)N(C)C(=O)C[C@@H](C(=O)N2CCCCC2)N(C)C(=O)[C@H](C2CCCC2)N(C)C(=O)C2(CCCC2)NC(=O)[C@@H]2CCCN2C(=O)[C@H](CCc2ccc(C(F)(F)F)c(Cl)c2)NC(=O)CN(C)C(=O)[C@H](C2CCC2)N(C)C(=O)[C@@H]2CCN2C(=O)[C@H](C)N(C)C1=O [Compound 127] ([NMeL]I[NMeA][Aze][NMeGly(cBu)][Sar][hPhe(3-Cl-4-CF3)]P[Ac5c][NMeGly(cPent)][NMeD]-Piperidide; lactam N-11)	0.43
CCCCC[C@H]1C(=O)N[C@@H]([C@@H](C)CC)C(=O)N[C@@H](C)C(=O)N2CC[C@H]2C(=O)N(C)[C@@H](CC2CCCCC2)C(=O)N(C)CC(=O)N[C@@H](CCc2ccc(C(F)(F)F)c(Cl)c2)C(=O)N2CCC[C@H]2C(=O)NC2(CCCC2)C(=O)N(C)[C@@H](C2CCCC2)C(=O)N(C)[C@H](C(=O)N2CCOCC2)CC(=O)N1C [Compound 263] ([NMeAhp(2)]IA[Aze][NMeCha][Sar][hPhe(3-Cl-4-CF3)]P[Ac5c][NMeGly(cPent)][NMeD]-Morpholide; lactam N-11)	2.9
CC[C@H](C)[C@@H]1NC(=O)[C@H](C)N(C)C(=O)C[C@@H](C)NC(=O)[C@H](CC(C)C)N(C)C(=O)C(C)(C)NC(=O)[C@H](CC(C)C)N(C)C(=O)[C@H](CCc2cccc(Cl)c2)NC(=O)CN(C)C(=O)[C@H](Cc2ccc(Cl)cc2)N(C)C(=O)CN(C)C(=O)CN(C)C1=O [Compound 153] (cyclo([Aib][NMeL][d(β3hA)][NMeA]I[Sar][Sar][NMePhe(4-Cl)][Sar][hPhe(3-Cl)][NMeL]))	60
CC[C@H](C)[C@@H]1NC(=O)[C@H](C)N(C)C(=O)C[C@@H](C)NC(=O)[C@H](C2CCCC2)N(C)C(=O)C2(CCCC2)NC(=O)[C@@H]2CCCN2C(=O)[C@H](CCc2ccc(C(F)(F)F)c(Cl)c2)NC(=O)[C@H]2CCCN2C(=O)[C@H](Cc2ccc(C(F)(F)F)cc2)N(C)C(=O)CN(C)C(=O)CN(C)C1=O [Compound 1470] (cyclo([Ac5c][NMeGly(cPent)][d(β3hA)][NMeA]I[Sar][Sar][NMePhe(4-CF3)][dP][hPhe(3-Cl-4-CF3)]P))	210
CC[C@H](C)[C@@H]1NC(=O)[C@H](CC(C)C)N(C)C(=O)C[C@@H](C)N(C)C(=O)[C@H](C2CCCCC2)N(C)C(=O)C2(CCCC2)NC(=O)[C@@H]2CCCN2C(=O)[C@H](CCc2cc(F)c(C(F)(F)F)c(F)c2)NC(=O)CN(C)C(=O)[C@H](Cc2ccc(C(F)(F)F)cc2)N(C)C(=O)[C@@H]2CCN2C(=O)[C@H](C)N(C)C1=O [Compound 39] (cyclo([Ac5c][NMeChg][NMedβ3hAla][NMeL]I[NMeA][Aze][NMePhe(4-CF3)][Sar][hPhe(3,5-F2-4-CF3)]P))	11
CC[C@H](C)[C@@H]1NC(=O)[C@H](CC(C)C)N(C)C(=O)C[C@@H](C(=O)N2CCOCC2)N(C)C(=O)[C@H](C2CCCC2)N(C)C(=O)C2(CCCC2)NC(=O)[C@@H]2CCCN2C(=O)[C@H](CCc2ccc(C(F)(F)F)c(Cl)c2)NC(=O)CN(CC)C(=O)[C@H](C2CCCC2)N(C)C(=O)[C@@H]2CCN2C(=O)[C@H](C)N(C)C1=O [Compound 1142] ([NMeL]I[NMeA][Aze][NMeGly(cPent)][NEtG][hPhe(3-Cl-4-CF3)]P[Ac5c][NMeGly(cPent)][NMeD]-Morpholide; lactam N-11)	6.5
CCCOC[C@H]1C(=O)N(C)CC(=O)N[C@@H](CCc2ccc(C(F)(F)F)c(F)c2)C(=O)N2CCC[C@H]2C(=O)NC2(CCCC2)C(=O)N(C)[C@@H]([C@@H](C)CC)C(=O)N(C)[C@H](C(=O)N2CCCCC2)CC(=O)N(C)[C@@H](CC(C)C)C(=O)N[C@@H]([C@@H](C)CC)C(=O)N(C)[C@@H](C)C(=O)N2CC[C@H]2C(=O)N1C [Compound 236] ([NMeL]I[NMeA][Aze][NMeS](Propyl)[Sar][hPhe(3-F,4-CF3)]P[Ac5c][NMeI][NMeD]-Piperidide; lactam N-11)	8.5
CC[C@H](C)[C@@H]1NC(=O)[C@H](CC(C)C)N(C)C(=O)C[C@@H](CC(C)C)NC(=O)[C@H]([C@@H](C)CC)N(C)C(=O)C2(CCCC2)NC(=O)[C@@H]2CCCN2C(=O)[C@H](CCc2ccc(C(F)(F)F)c(Cl)c2)NC(=O)CN(C)C(=O)[C@H](Cc2ccc(C(F)(F)F)cc2)N(C)C(=O)[C@@H]2CCN2C(=O)[C@H](C)N(C)C1=O [Compound 1899] (cyclo([Ac5c][NMeI][d(β3hL)][NMeL]I[NMeA][Aze][NMePhe(4-CF3)][Sar][hPhe(3-Cl-4-CF3)]P))	220
CC[C@H](C)[C@@H]1NC(=O)[C@H](C)N(C)C(=O)C[C@@H](C(=O)N2CCCCC2)N(C)C(=O)[C@H](C(C)C)N(C)C(=O)C2(CCCC2)NC(=O)[C@H](Cc2ccccc2Cl)N(CC)C(=O)[C@H](CCc2ccc(C(F)(F)F)c(Cl)c2)NC(=O)CN(C)C(=O)[C@H](CC2CCCCC2)N(C)C(=O)CN(C)C(=O)CN(C)C1=O [Compound 2161, (8S,11S,17S,26S,29S,33S,36S)-8-[(2-chlorophenyl)methyl]-11-[2-[3-chloro-4-(trifluoromethyl)phenyl]ethyl]-17-(cyclohexylmethyl)-9-ethyl-36-isopropyl-15,18,21,24,29,30,34,37-octamethyl-26-[(1S)-1-methylpropyl]-33-(piperidine-1-carbonyl)-6,9,12,15,18,21,24,27,30,34,37-undecazaspiro[4.33]octatriacontane-7,10,13,16,19,22,25,28,31,35,38-undecone] ([NMeA]I[Sar][Sar][NMeCha][Sar][hPhe(3-Cl-4-CF3)][NEtPhe(2-Cl)][Ac5c][NMeV][NMeD]-Piperidide; lactam N-11)	480
CC[C@H](C)[C@@H]1NC(=O)[C@H](CC(C)C)N(C)C(=O)C[C@@H](C(=O)N2CCCCC2)N(C)C(=O)[C@H](C2CCCCC2)N(C)C(=O)C2(CCCC2)NC(=O)[C@@H]2C[C@@H](c3ccccc3)CN2C(=O)[C@H](CCc2ccc(C(F)(F)F)c(Cl)c2)NC(=O)CN(C)C(=O)[C@H](CC2CCCCC2)N(C)C(=O)CN(C)C(=O)CN(C)C1=O [Compound 90] ([NMeL]I[Sar][Sar][NMeCha][Sar][hPhe(3-Cl-4-CF3)][Pro(trans-4-Ph)][Ac5c][NMeChg][NMeD]-Piperidide; lactam N-11)	5
CC[C@H](C)[C@@H]1NC(=O)[C@H](CCOC)N(C)C(=O)C[C@@H](C(=O)N2CCCCC2)N(C)C(=O)[C@H](C(C)C)N(C)C(=O)C2(CCCC2)NC(=O)[C@@H]2CCCN2C(=O)[C@H](CCc2ccc(C(F)(F)F)c(Cl)c2)NC(=O)CN(C)C(=O)[C@H](CC2CCCCC2)N(C)C(=O)[C@@H]2CCN2C(=O)[C@H](C)N(C)C1=O [Compound 397] ([NMehSer](Me)I[NMeA][Aze][NMeCha][Sar][hPhe(3-Cl-4-CF3)]P[Ac5c][NMeV][NMeD]-Piperidide; lactam N-11)	2.3
CC[C@H](C)[C@@H]1NC(=O)[C@H](CC(C)C)N(C)C(=O)C[C@@H](C)N(C)C(=O)[C@H](C2CCCCC2)N(C)C(=O)C2(CCCC2)NC(=O)[C@@H]2CCCN2C(=O)[C@H](CCc2ccc(C(F)(F)F)c(Cl)c2)NC(=O)CN(C)C(=O)[C@H](Cc2ccc(C(F)(F)F)cc2)N(C)C(=O)[C@@H]2CCN2C(=O)[C@H](C)N(C)C1=O [Compound 348] (cyclo([Ac5c][NMeChg][NMedβ3hAla][NMeL]I[NMeA][Aze][NMePhe(4-CF3)][Sar][hPhe(3-Cl-4-CF3)]P))	6
CC[C@H](C)[C@@H]1NC(=O)[C@H](CC(C)C)N(CC)C(=O)C[C@@H](C(=O)N2CCOCC2)N(C)C(=O)[C@H](C2CCCC2)N(C)C(=O)C2(CCCC2)NC(=O)[C@@H]2CCCN2C(=O)[C@H](CCc2ccc(C(F)(F)F)c(Cl)c2)NC(=O)CN(C)C(=O)[C@H](CC2CCCCC2)N(C)C(=O)[C@@H]2CCN2C(=O)[C@H](C)NC1=O [Compound 1266] ([NEtLeu]IA[Aze][NMeCha][Sar][hPhe(3-Cl-4-CF3)]P[Ac5c][NMeGly(cPent)][NMeD]-Morpholide; lactam N-11)	1.2
CC[C@H](C)[C@@H]1NC(=O)[C@H](CC(C)C)N(C)C(=O)C[C@@H](C)NC(=O)[C@H](CC(C)C)N(C)C(=O)C2(CCCC2)NC(=O)[C@H](COCC(C)(C)O)N(C)C(=O)[C@H](CCc2ccc(C(F)(F)F)c(Cl)c2)NC(=O)CN(C)C(=O)[C@H](COCCC(C)C)N(C)C(=O)CN(C)C(=O)CN(CC)C1=O [Compound 1464] (cyclo([Ac5c][NMeL][d(β3hA)][NMeL]I[NEtG][Sar][NMeS](Isopentyl)[Sar][hPhe(3-Cl-4-CF3)][NMeS](CH2CMe2OH)))	190
